In article PMC6792352, “Limited Chemical Structural Diversity Found to Modulate Thyroid Hormone Receptor in the Tox21 Chemical Library” (Environmental Health Perspectives, 2019):
Counter-ions that a name gives are not always drawn.

Assay: in vitro
Settings: rat, gh3-tre-luc cells, AC50 (uM) modified / 1000
For `CCc1ncnc2cc(OC)c(OC)cc12` [Quazodine], the CC50 at 24 h was > 50 µM. For `O=C(NO)C1(NS(=O)(=O)c2ccc(Oc3ccc(F)cc3)cc2)CCOCC1` [CP-544439], the CC50 at 24 h was > 90 µM. Work on `Oc1ccc(C2(c3ccc(O)cc3)CCCCC2)cc1` [Bisphenol Z] yielded a CC50 at 24 h of 39.8 µM. In the case of `Nc1ncnc2c1ncn2[C@@H]1O[C@H](COP(=O)(O)O)[C@@H](O)[C@H]1O` [Adenosine 5'-phosphate], the CC50 at 24 h is reported as > 50 µM. For `CN(C)[C@@H]1C(O)=C(C(=O)NCN2CCCC2)C(=O)[C@@]2(O)C(O)=C3C(=O)c4c(O)cccc4[C@@](C)(O)[C@H]3C[C@@H]12` [Rolitetracycline], the CC50 at 24 h was > 20 µM. With `Nc1ccc2c(c1)C(=O)c1ccccc1C2=O` [2-Aminoanthraquinone] the CC50 at 24 h was > 90 µM. Molecule `CCC(C)N(C)C(=O)c1cc2ccccc2c(-c2ccccc2Cl)n1` (stereo not shown) [PK 11195] has a CC50 at 24 h of 48.6 µM. With `CC(=O)OCCc1ccccc1` [2-Phenylethyl acetate] the CC50 at 24 h was > 90 µM. With `C=C(C)C(=O)OCCCCCCCCCCCCC` [Tridecyl methacrylate] the CC50 at 24 h was > 90 µM. With `N=C(N)c1ccccc1` [Benzenecarboximidamide, monohydrochloride] the CC50 at 24 h was > 90 µM. For `CCCCCC(=O)OCCc1ccccc1` [2-Phenylethyl hexanoate], the CC50 at 24 h was > 90 µM. In the case of `CCN(CC)CCNC(=O)c1ccc(N)cc1` [Procainamide hydrochloride], the CC50 at 24 h is reported as > 90 µM. In the case of `O=C[C@H](O)[C@@H](O)[C@H](O)[C@H](O)CO` (racemic) [DL-Glucose], the CC50 at 24 h is reported as > 50 µM. With `N#Cc1cc(Br)c(O)c(Br)c1` [Bromoxynil] the CC50 at 24 h was > 90 µM. With `Nc1ccc(Sc2ccc(N)cc2)cc1` [4,4'-Thiodianiline] the CC50 at 24 h was > 90 µM. With `N#Cc1c2ccccc2cc2ccccc12` [9-Cyanoanthracene] the CC50 at 24 h was > 90 µM. For `CC(=O)O[C@H]1C[C@H](O[C@H]2[C@@H](O)C[C@H](O[C@H]3[C@@H](O)C[C@H](O[C@H]4CC[C@@]5(C)[C@H](CC[C@@H]6[C@@H]5CC[C@]5(C)[C@@H](C7=CC(=O)OC7)CC[C@]65O)C4)O[C@@H]3C)O[C@@H]2C)O[C@H](C)[C@H]1O[C@@H]1O[C@H](CO)[C@@H](O)[C@H](O)[C@H]1O` [Lanatoside A], the CC50 at 24 h was > 50 µM. For `CCCCC(CC)COC(=O)c1ccc(N(C)C)cc1` (stereo not shown) [2-Ethylhexyl 4-(dimethylamino)benzoate], the CC50 at 24 h was > 90 µM. Work on `CN1CCC(Nc2ncc3ncnc(Nc4ccc(F)c(Cl)c4)c3n2)CC1` [Falnidamol dihydrochloride] yielded a CC50 at 24 h of 11.7 µM. For `Cc1cc2c(C(C)C)c(O)c(O)c(C=O)c2c(O)c1-c1c(C)cc2c(C(C)C)c(O)c(O)c(C=O)c2c1O` [Gossypol], the CC50 at 24 h was 8.84 µM. With `CC(C)C1(C)N=C(c2nc3ccccc3cc2C(=O)O)NC1=O` (stereo not shown) [Imazaquin] the CC50 at 24 h was > 90 µM. For `CC(C)NCC(O)c1ccc([N+](=O)[O-])cc1` (stereo not shown) [Nifenalol], the CC50 at 24 h was > 50 µM. Work on `CCCCCCCCCCCCCCCC/C=C/C1CC(=O)OC1=O` (stereo not shown) [Dihydro-3-(octadecenyl)-2,5-furandione] yielded a CC50 at 24 h of 36 µM. With `CO/N=C(\C(=O)N[C@@H]1C(=O)N2C(C(=O)O)=C(COC(C)=O)CS[C@H]12)c1csc(N)n1` [Cefotaxime sodium] the CC50 at 24 h was > 50 µM. With `C[C@H](O)[C@H]1CC[C@H]2[C@@H]3CC[C@@H]4C[C@H](O)CC[C@]4(C)[C@H]3CC[C@]12C` [Pregnandiol] the CC50 at 24 h was > 50 µM. With `CCC12COCN1COC2` [Oxazolidine-E] the CC50 at 24 h was > 90 µM. In the case of `C=CCOC(=O)CCCCCC` [Prop-2-en-1-yl heptanoate], the CC50 at 24 h is reported as > 90 µM. With `CCCCC(CC)COC(=O)CC#N` (stereo not shown) [2-Ethylhexyl cyanoacetate] the CC50 at 24 h was > 90 µM. For `O=C(O)CNc1ccccc1` [Potassium anilinoacetate], the CC50 at 24 h was > 90 µM. For `O=C1NS(=O)(=O)c2ccccc21` [Sodium saccharin], the CC50 at 24 h was > 90 µM. For `CC1(C)O[C@@H]2C[C@H]3[C@@H]4C[C@H](F)C5=CC(=O)C=C[C@]5(C)[C@H]4[C@@H](O)C[C@]3(C)[C@]2(C(=O)CO)O1` [Flunisolide], the CC50 at 24 h was > 20 µM. With `CCC(=O)C1CC(C(C)C)CC=C1C` (stereo not shown) [1-(5-Isopropyl-2-methyl-cyclohex-2-enyl)-propan-1-one] the CC50 at 24 h was > 90 µM. `CCN(CC)CCCN(c1ccccc1)C1Cc2ccccc2C1` [Aprindine hydrochloride] showed a CC50 at 24 h of 2.3 µM. In the case of `NC(=O)c1ccc([N+](=O)[O-])cc1Cl` [2-Chloro-4-nitrobenzamide], the CC50 at 24 h is reported as > 90 µM. Molecule `O=C(Nc1ccc(Oc2ccc(Cl)cc2)c(Cl)c1)c1cc(I)cc(I)c1O` [Rafoxanide] has a CC50 at 24 h of 36.2 µM. With `OC[C@H]1O[C@H](O[C@@]2(CO)O[C@@H](O)[C@H](O)[C@@H]2O)[C@H](O)[C@@H](O)[C@@H]1O` [alpha-L-Lyxo-hex-5-ulofuranosyl alpha-D-glucopyranoside] the CC50 at 24 h was > 50 µM. In the case of `CC1OCCC1=O` (stereo not shown) [2-Methyldihydrofuran-3(2H)-one], the CC50 at 24 h is reported as > 90 µM. For `c1ccc(Sc2ccccc2)cc1` [Diphenyl sulfide], the CC50 at 24 h was > 90 µM. For `O=CN(CCO)CCO` [N,N-Bis(2-hydroxyethyl)formamide], the CC50 at 24 h was > 90 µM. `C=CCN1C[C@H](C)N([C@H](c2ccc(C(=O)N(CC)CC)cc2)c2cccc(OC)c2)C[C@H]1C` [SNC 80] gave a CC50 at 24 h of 28.8 µM. With `c1ccc2c(c1)CCNC2` [1,2,3,4-Tetrahydroisoquinoline] the CC50 at 24 h was > 90 µM. For `Cc1cc(NC(=O)C2=C(O)c3ccccc3S(=O)(=O)N2C)no1` [Isoxicam], the CC50 at 24 h was > 50 µM. With `C[N+](C)(C)CCCCCCCCCC[N+](C)(C)C` [Decamethonium bromide] the CC50 at 24 h was > 50 µM. For `CC(Cc1ccccc1)(NC(=O)CN)c1ccccc1` (stereo not shown) [Remacemide hydrochloride], the CC50 at 24 h was > 50 µM. With `C[C@](N)(Cc1ccc(O)c(O)c1)C(=O)O` [Methyldopa sesquihydrate] the CC50 at 24 h was > 90 µM. In the case of `Nc1cccc(N)c1` [1,3-Benzenediamine dihydrochloride], the CC50 at 24 h is reported as > 90 µM. In the case of `O=S(=O)(O)CCCS(=O)(=O)O` [Disodium propane-1,3-disulfonate], the CC50 at 24 h is reported as > 50 µM. With `COc1cc(Cc2cnc(N)nc2N)cc(OC)c1OC` [Trimethoprim] the CC50 at 24 h was > 90 µM. With `C=C1CC/C=C(\C)CC[C@@H]2[C@@H]1CC2(C)C` [beta-Caryophyllene] the CC50 at 24 h was > 90 µM. With `FC(F)(F)COCC(F)(F)F` [Flurothyl] the CC50 at 24 h was > 50 µM. `CC(=O)O[C@]1(C(C)=O)CC[C@H]2[C@@H]3C=C(Cl)C4=CC(=O)CC[C@]4(C)[C@H]3CC[C@@]21C` [Chlormadinone acetate] gave a CC50 at 24 h of 90.1 µM. In the case of `CCC(=O)O[C@H]1[C@@H](N2CCCCC2)C[C@H]2[C@@H]3CC[C@H]4C[C@H](OC(C)=O)[C@@H](N5CCCCC5)C[C@]4(C)[C@H]3CC[C@@]21C` [(2beta,3alpha,5alpha,16beta,17beta)-3-Acetoxy-2,16-di(1-piperidinyl)androstan-17-yl propionate], the CC50 at 24 h is reported as > 50 µM. In the case of `NC(=O)c1ncn([C@@H]2O[C@H](CO)[C@@H](O)[C@H]2O)c1O` [Mizoribine], the CC50 at 24 h is reported as > 50 µM. With `Nc1c2ccccc2nc2ccccc12` [9-Aminoacridine, monohydrochloride, monohydrate] the CC50 at 24 h was > 90 µM. In the case of `BrC/C=C/CBr` [(E)-1,4-Dibromo-2-butene], the CC50 at 24 h is reported as > 20 µM. For `CCCCCCCCCC#N` [Decanenitrile], the CC50 at 24 h was > 90 µM. For `COC(=O)c1ccccc1OC` [Methyl 2-methoxybenzoate], the CC50 at 24 h was > 90 µM. In the case of `O=C(Oc1cccc2cccnc12)c1ccccc1` [Benzoxiquine], the CC50 at 24 h is reported as 12 µM. For `CC(C)(C)N(CCO)CCO` [2,2'-(tert-Butylimino)diethanol], the CC50 at 24 h was > 90 µM. With `COC(=O)CC(C)CCC=C(C)C` (stereo not shown) [Methyl citronellate] the CC50 at 24 h was > 90 µM. For `CC1(CO)CN(c2ccccc2)NC1=O` (stereo not shown) [4-(Hydroxymethyl)-4-methyl-1-phenylpyrazolidin-3-one], the CC50 at 24 h was > 90 µM. For `CCCCCCCCCCCCCCCC(=O)OCC` [Ethyl hexadecanoate], the CC50 at 24 h was > 90 µM. With `CCCC(=O)OCCc1ccccc1` [2-Phenylethyl butanoate] the CC50 at 24 h was > 90 µM. With `C[N+]1(C)CCC(=C(c2ccccc2)c2ccccc2)CC1` [Diphemanil methylsulfate] the CC50 at 24 h was > 20 µM. With `CCOC(=O)C=CC(=O)O` [4-Ethoxy-4-oxobut-2-enoic acid] the CC50 at 24 h was > 90 µM. In the case of `CC(=O)Nc1ccc(C(=O)O)cc1` [4-Acetamidobenzoic acid], the CC50 at 24 h is reported as > 90 µM. For `CC(=O)OC1CCC(C(C)(C)C)CC1` (stereo not shown) [4-tert-Butylcyclohexyl acetate], the CC50 at 24 h was > 90 µM. In the case of `CC(C)=CCC/C(C)=C/CC/C(C)=C/CCC(=O)OC/C=C(\C)CCC=C(C)C` [Gefarnate], the CC50 at 24 h is reported as > 50 µM. With `CN1CCN(C2=Nc3ccccc3Sc3ccc(Cl)cc32)CC1` [Clothiapine] the CC50 at 24 h was 15.2 µM. `Cc1cc(C(C)(C)c2cc(C)c(O)c(C)c2)cc(C)c1O` [4,4'-Propane-2,2-diylbis(2,6-dimethylphenol)] showed a CC50 at 24 h of 16.9 µM. For `CN(C)CCN1C(=O)c2ccccc2N(C)c2ccccc21` [Dibenzepin hydrochloride], the CC50 at 24 h was > 50 µM.

Same assay, conditions: rat, gh3-tre-luc cells, AC50 (uM) modified / 1000, Tox21_110001=Tox21_111641; viability, 1 nM T3 present, 24 h
For `CCC1(c2ccccc2)CCC(=O)NC1=O` (stereo not shown) [Glutethimide], the CC50 at 24 h was > 50 µM.

Same assay, conditions: rat, gh3-tre-luc cells, AC50 (uM) modified / 1000, Tox21_110001=Tox21_112426; viability, 1 nM T3 present, 24 h
With `FC(F)OC(F)(F)C(F)Cl` (stereo not shown) [Enflurane] the CC50 at 24 h was > 50 µM.

Same assay, conditions: rat, gh3-tre-luc cells, AC50 (uM) modified / 1000, Tox21_110001=Tox21_112886; viability, 1 nM T3 present, 24 h
In the case of `CN1CC[C@]23c4c5ccc(O)c4O[C@H]2[C@@H](O)CC[C@H]3[C@H]1C5` [Dihydromorphine], the CC50 at 24 h is reported as > 90 µM.

Same assay, conditions: rat, gh3-tre-luc cells, AC50 (uM) modified / 1000, Tox21_110001=Tox21_200003; viability, 1 nM T3 present, 24 h
With `Cl/C=C\Cl` [(Z)-1,2-Dichloroethylene] the CC50 at 24 h was > 90 µM.

Same assay, conditions: rat, gh3-tre-luc cells, AC50 (uM) modified / 1000, Tox21_110001=Tox21_200166; viability, 1 nM T3 present, 24 h
In the case of `FC(F)OC(F)(F)C(F)Cl` (stereo not shown) [Enflurane], the CC50 at 24 h is reported as > 90 µM.

Same assay, conditions: rat, gh3-tre-luc cells, AC50 (uM) modified / 1000, Tox21_110001=Tox21_201236; viability, 1 nM T3 present, 24 h
For `CN1CSC(=S)N(C)C1` [Dazomet], the CC50 at 24 h was 5.54 µM.

Same assay, conditions: rat, gh3-tre-luc cells, AC50 (uM) modified / 1000, Tox21_110001=Tox21_202419; viability, 1 nM T3 present, 24 h
For `Cl/C=C/Cl` [(E)-1,2-Dichloroethylene], the CC50 at 24 h was > 90 µM.

Same assay, conditions: rat, gh3-tre-luc cells, AC50 (uM) modified / 1000, Tox21_110001=Tox21_300990; viability, 1 nM T3 present, 24 h
Molecule `CN1CSC(=S)N(C)C1` [Dazomet] has a CC50 at 24 h of 34.4 µM.
